Measurements from the supplement of paper PMC10307832.

Legend:
Test in all cases: relative viability (nuclei count vs DMSO), 5 days (fraction); higher = more cells survive
Cabozantinib + OSI-027 = compound: COc1cc2nccc(Oc3ccc(NC(=O)C4(C(=O)Nc5ccc(F)cc5)CC4)cc3)c2cc1OC [Cabozantinib] + COc1cccc2cc(-c3nc([C@H]4CC[C@H](C(=O)O)CC4)n4ncnc(N)c34)[nH]c12 [OSI-027] (partner 0.5 µM)
How it was run: (§1)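 Relative viability equals treated-well nuclei counts divided by vehicle-well nuclei counts. Counts came from 4× images of lung cancer cell lines grown in 1536-well plates for 5 days after pin-tool dosing on the day after seeding. Dosing used one drug alone or a fixed anchor-drug dose plus five library-drug doses (not always all listed) in √10 steps, and values are medians of duplicate plates.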

Zosuquidar + Palbociclib = compound: O[C@@H](COc1cccc2ncccc12)CN1CCN([C@@H]2c3ccccc3[C@@H]3[C@H](c4ccccc42)C3(F)F)CC1 [Zosuquidar] + CC(=O)c1c(C)c2cnc(Nc3ccc(N4CCNCC4)cn3)nc2n(C2CCCC2)c1=O [Palbociclib] (partner 0.5 µM)
How it was run: as §1

Zosuquidar + Foretinib = compound: O[C@@H](COc1cccc2ncccc12)CN1CCN([C@@H]2c3ccccc3[C@@H]3[C@H](c4ccccc42)C3(F)F)CC1 [Zosuquidar] + COc1cc2c(Oc3ccc(NC(=O)C4(C(=O)Nc5ccc(F)cc5)CC4)cc3F)ccnc2cc1OCCCN1CCOCC1 [Foretinib] (partner 0.25 µM)
How it was run: as §1

Zosuquidar + Pictilisib = compound: O[C@@H](COc1cccc2ncccc12)CN1CCN([C@@H]2c3ccccc3[C@@H]3[C@H](c4ccccc42)C3(F)F)CC1 [Zosuquidar] + CS(=O)(=O)N1CCN(Cc2cc3nc(-c4cccc5[nH]ncc45)nc(N4CCOCC4)c3s2)CC1 [Pictilisib] (partner 1 µM)
How it was run: as §1

Cell Line	relative viability (Cabozantinib + OSI-027; first compound 0.02 µM)	relative viability (Cabozantinib + OSI-027; first compound 0.06325 µM)	relative viability (Cabozantinib + OSI-027; first compound 0.2 µM)	relative viability (Cabozantinib + OSI-027; first compound 0.6325 µM)	relative viability (Cabozantinib + OSI-027; first compound 2 µM)	relative viability (Zosuquidar + Palbociclib; first compound 0.01 µM)	relative viability (Zosuquidar + Palbociclib; first compound 0.03162 µM)	relative viability (Zosuquidar + Palbociclib; first compound 0.1 µM)	relative viability (Zosuquidar + Palbociclib; first compound 0.3162 µM)	relative viability (Zosuquidar + Palbociclib; first compound 1 µM)	relative viability (Zosuquidar + Foretinib; first compound 0.01 µM)	relative viability (Zosuquidar + Foretinib; first compound 0.03162 µM)	relative viability (Zosuquidar + Foretinib; first compound 0.1 µM)	relative viability (Zosuquidar + Foretinib; first compound 0.3162 µM)	relative viability (Zosuquidar + Foretinib; first compound 1 µM)	relative viability (Zosuquidar + Pictilisib; first compound 0.01 µM)	relative viability (Zosuquidar + Pictilisib; first compound 0.03162 µM)	relative viability (Zosuquidar + Pictilisib; first compound 0.1 µM)	relative viability (Zosuquidar + Pictilisib; first compound 0.3162 µM)	relative viability (Zosuquidar + Pictilisib; first compound 1 µM)
LU99A	0.231	0.298	0.274	0.31	0.311	0.342	0.37	0.473	0.459	0.353	0.784	0.931	0.813	0.855	0.814	0.252	0.275	0.354	0.327	0.4
LXF-289	0.612	0.856	0.753	0.816	0.78	0.576	0.599	0.614	0.582	0.584	0.956	1.02	0.94	1.02	0.968	0.767	0.776	0.747	0.818	0.781
NCI-H23		0.729	0.645	0.624	0.489	0.45		0.516	0.578	0.524	0.979	0.875	1.02	1.04	1.09	0.479	0.525	0.393	0.574	0.496
NCI-H322M	0.475	0.596	0.486	0.572	0.54	0.458	0.485	0.475	0.463	0.468	0.961	1.19	0.723	0.983	0.972	0.494	0.577	0.371	0.519	0.534
NCI-H358	0.641	0.888	0.628	0.74	0.67	0.119	0.148	0.132	0.16	0.136	0.654	0.615	0.719	0.598	0.702	0.339	0.349	0.218	0.366	0.304
NCI-H441	0.428	0.653	0.663	0.564	0.559	0.239	0.223	0.216	0.281	0.242	1.06	1.01	0.866	1.03	1.2	0.449	0.435	0.512		0.595
NCI-H460	0.761	0.927	0.664	0.624	0.584	0.15	0.18	0.203	0.171	0.19	0.922	0.987	0.987	0.969	0.952	0.326	0.393	0.27	0.437	0.393
NCI-H520	0.215	0.289	0.247	0.286	0.218	0.201	0.195	0.198	0.179	0.208	0.882	0.849		0.619	0.685	0.327	0.295	0.289	0.363	0.297
NCI-H647	0.589	0.633	0.641	0.636	0.548	0.386	0.406	0.452	0.377	0.361	1.21	1.13	1.32	1.27	1.02	0.493	0.316	0.463	0.4	0.466
NCI-H650		0.567	0.552	0.544	0.535	0.305	0.327	0.331	0.364	0.378	1.03	0.984	0.908	1.15	0.939	0.787	0.789		1.05	0.942
NCI-H661	0.667	0.686	0.673	0.675	0.687	0.404	0.4	0.415	0.416	0.408	1.05	0.895	0.885	1.06	0.988	0.351	0.419		0.404	0.361
NCI-H727	0.491	0.73	0.58	0.617	0.445	0.596	0.607		0.599	0.668	0.774	0.79	0.774	0.855	0.908	0.36	0.555	0.228	0.391	0.506
NCI-H838	0.458	0.38	0.339	0.414	0.366	0.217	0.223	0.218	0.225	0.227	1.07	1	0.995	1.11	1.07	0.423	0.428	0.284	0.488	0.441
NCI-H1355	0.291	0.477	0.412	0.458	0.411	0.417	0.397	0.404	0.308	0.412	0.951	0.989	0.9	1.02	0.923	0.427	0.375	0.354	0.546	0.476
NCI-H1395	0.514	0.675	0.632	0.69	0.573	0.596	0.664		0.64	0.549	0.98	0.957	0.824	1.06	1	0.574	0.556	0.52	0.683	0.809
NCI-H1437	0.896	0.963	0.882	0.921	0.922	0.3	0.333	0.348	0.272	0.32	1.28	1.24	1.16	1.3	1.31	0.464	0.411	0.453	0.628	0.506
